In patent US20250073340A1, “SPIROCYCLIC MDM2 MODULATOR AND USES THEREOF” (Newave Pharmaceutical Inc., priority 2021, published 2025) one finds IC50 data, which are given here for 15 molecules.

Each structure is given as a SMILES string.

For one assay, the target named is MDM2 (Homo sapiens (Human), UniProt Q00987). In words: In vitro MDM2 HTRF assay (inhibition of p53-MDM2 interaction). The format is binding. The conditions noted are these: GST-MDM2 / biotinylated p53 peptide. Background: TR-FRET usually uses a lanthanide donor and a delayed reading to cut background.
Assay [1] deals with BCL-2-dependent acute lymphoblastic leukemia (ALL) cell line RS4;11 overexpressing Bcl-2 G101V. In words: cells. It counts as cell-based. The conditions noted are these: Homo sapiens, RS4-11; about 72 hours, ATPlite luminescence; read-out: RS4;11-G101V IC50. The protocol: Biological Example 2: In vitro Anti-proliferation Assay in BCL-2-dependent acute lymphoblastic leukemia (ALL) cell line RS4; 11 overexpressing Bcl-2 G101V
Cell antiproliferation was assayed by PerkinElmer ATPlite™ Luminescence Assay System. Briefly, the various test cancer cell lines were plated at a density of about 1×10^4 cells per well in Costar 96-well plates, and were incubated with different concentrations of compounds for about 72 hours in medium supplemented with 5% FBS or 10% normal human serum (NHS). One lyophilized substrate solution vial was then reconstituted by adding 5 mL of substrate buffer solution, and was agitated gently until the solution was homogeneous. About 50 μL of mammalian cell lysis solution was added to 100 μL of cell suspension per well of a microplate, and the plate was shaken for about five minutes in an orbital shaker at −700 rpm. This procedure was used to lyse the cells and to stabilize the ATP. Next, 50 μL substrate solution was added to the wells and microplate was shaken for five minutes in an orbital shaker at −700 rpm. Finally, the luminescence was measured by a PerkinElmer TopCount® Microplate Scintillation Counter. Such assays, carried out with a range of doses of test compounds, allowed the determination of the cellular anti-antiproliferative IC50 of the compounds of the present invention.

Sequence of MDM2 (Q00987 whole entry): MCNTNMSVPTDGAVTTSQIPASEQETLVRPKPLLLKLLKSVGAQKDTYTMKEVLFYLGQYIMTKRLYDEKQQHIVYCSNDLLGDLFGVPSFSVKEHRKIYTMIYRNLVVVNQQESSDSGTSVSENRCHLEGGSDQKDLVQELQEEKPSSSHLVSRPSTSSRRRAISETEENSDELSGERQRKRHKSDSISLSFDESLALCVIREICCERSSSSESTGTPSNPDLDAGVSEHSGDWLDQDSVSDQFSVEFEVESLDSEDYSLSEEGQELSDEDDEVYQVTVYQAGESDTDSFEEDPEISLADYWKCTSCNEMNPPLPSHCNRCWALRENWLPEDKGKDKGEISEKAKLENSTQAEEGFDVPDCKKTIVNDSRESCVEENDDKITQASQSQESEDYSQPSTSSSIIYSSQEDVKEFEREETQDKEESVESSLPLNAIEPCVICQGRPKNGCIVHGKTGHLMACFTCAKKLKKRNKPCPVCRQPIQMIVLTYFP

As to `COc1cc(C(N)=O)ccc1NC(=O)[C@@H]1N[C@@H](CC(C)(C)C)[C@@]2(CNc3cc(Cl)ncc32)[C@H]1c1cccc(Cl)c1F` [Example 9, (2S,3S,4S,5R)—N-(4-carbamoyl-2-methoxyphenyl)-6′-chloro-4-(3-chloro-2-fluorophenyl)-2-(2,2-dimethylpropyl)-1′,2′-dihydrospiro[pyrrolidine-3,3′-pyrrolo[3,2-c]pyridine]-5-carboxamide], the IC50 on MDM2 was 0.58 nM; in assay [1], 11 nM. The like results for `COc1cc(C(N)=O)ccc1NC(=O)[C@@H]1N[C@@H](CC(C)(C)C)[C@@]2(CNc3cc(C(F)(F)F)ncc32)[C@H]1c1cccc(Cl)c1F` [Example 11, (2S,3S,4S,5R)—N-(4-carbamoyl-2-methoxyphenyl)-4-(3-chloro-2-fluorophenyl)-2-(2,2-dimethylpropyl)-6′-(trifluoromethyl)-1′,2′-dihydrospiro[pyrrolidine-3,3′-pyrrolo[3,2-c]pyridine]-5-carboxamide] were, in that order, 0.18 nM and 44.7 nM. As for `CC(C)(C)C[C@@H]1N[C@@H](C(=O)N2CCOc3cc(C(N)=O)ccc32)[C@H](c2cccc(Cl)c2F)[C@]12CNc1cc(Cl)ccc12` [Example 14, 4-((2′S,3S,4′S,5′R)-6-chloro-4′-(3-chloro-2-fluorophenyl)-2′-neopentylspiro[indoline-3,3′-pyrrolidine]-5′-carbonyl)-3,4-dihydro-2H-benzo[b][1,4]oxazine-7-carboxamide], the IC50 is 114 nM against MDM2 and above 1000 nM in assay [1].

Take `CC(C)(C)C[C@H]1N[C@H](C(=O)N2CCOc3cc(C(N)=O)ccc32)[C@@H](c2cccc(Cl)c2F)[C@@]12CNc1cc(Cl)ccc12` [Example 15, 4-((2′R,3R,4′R,5′S)-6-chloro-4′-(3-chloro-2-fluorophenyl)-2′-neopentylspiro[indoline-3,3′-pyrrolidine]-5′-carbonyl)-3,4-dihydro-2H-benzo[b][1,4]oxazine-7-carboxamide]: the IC50 at MDM2 is 638 nM; in assay [1], above 1000 nM. As to `COc1cc(C(=O)NCCCC#Cc2cccc3c2CN(C2CCC(=O)NC2=O)C3=O)ccc1NC(=O)[C@@H]1N[C@@H](CC(C)(C)C)[C@@]2(CNc3cc(Cl)ccc32)[C@H]1c1cccc(Cl)c1F` (stereo partly drawn) [Example 16, (2′S,3S,4′S,5′R)-6-chloro-4′-(3-chloro-2-fluorophenyl)-N-(4-((5-(2-(2,6-dioxopiperidin-3-yl)-1-oxoisoindolin-4-yl)pent-4-yn-1-yl)carbamoyl)-2-methoxyphenyl)-2′-neopentylspiro[indoline-3,3′-pyrrolidine]-5′-carboxamide], the figures for the IC50 (on MDM2; in assay [1]) were 1.54 nM and 10.1 nM, respectively.

With `COc1cc(C(=O)NCCCC#Cc2cccc3c2CN([C@@H]2CCC(=O)NC2=O)C3=O)ccc1NC(=O)[C@@H]1N[C@@H](CC(C)(C)C)[C@@]2(CNc3cc(Cl)ccc32)[C@H]1c1cccc(Cl)c1F` [Example 17, (2′S,3S,4′S,5′R)-6-chloro-4′-(3-chloro-2-fluorophenyl)-N-(4-((5-(2-((R)-2,6-dioxopiperidin-3-yl)-1-oxoisoindolin-4-yl)pent-4-yn-1-yl)carbamoyl)-2-methoxyphenyl)-2′-neopentylspiro[indoline-3,3′-pyrrolidine]-5′-carboxamide], the IC50 was 1.36 nM at MDM2 and 3.82 nM in assay [1]. For the molecule `COc1cc(C(=O)NCCCC#Cc2cccc3c2CN([C@H]2CCC(=O)NC2=O)C3=O)ccc1NC(=O)[C@@H]1N[C@@H](CC(C)(C)C)[C@@]2(CNc3cc(Cl)ccc32)[C@H]1c1cccc(Cl)c1F` [Example 18, (2′S,3S,4′S,5′R)-6-chloro-4′-(3-chloro-2-fluorophenyl)-N-(4-((5-(2-((S)-2,6-dioxopiperidin-3-yl)-1-oxoisoindolin-4-yl)pent-4-yn-1-yl)carbamoyl)-2-methoxyphenyl)-2′-neopentylspiro[indoline-3,3′-pyrrolidine]-5′-carboxamide], the IC50 on MDM2 worked out at 1.3 nM; in assay [1], 5.91 nM.

On to `COc1cc(C(=O)N2CCC(C#Cc3cccc4c3CN(C3CCC(=O)NC3=O)C4=O)CC2)ccc1NC(=O)[C@@H]1N[C@@H](CC(C)(C)C)[C@@]2(CNc3cc(Cl)ccc32)[C@H]1c1cccc(Cl)c1F` (stereo partly drawn) [Example 20, (2′S,3S,4′S,5′R)-6-chloro-4′-(3-chloro-2-fluorophenyl)-2′-(2,2-dimethylpropyl)-N-[4-(4-{2-[2-(2,6-dioxopiperidin-3-yl)-1-oxo-3H-isoindol-4-yl]ethynyl}piperidine-1-carbonyl)-2-methoxyphenyl]-1,2-dihydrospiro[indole-3,3′-pyrrolidine]-5′-carboxamide], for which the figures for the IC50 (on MDM2; in assay [1]) were 3.67 nM and 31.9 nM, respectively. For the molecule `COc1cc(C(=O)NC23CC(C#Cc4cccc5c4CN(C4CCC(=O)NC4=O)C5=O)(C2)C3)ccc1NC(=O)[C@@H]1N[C@@H](CC(C)(C)C)[C@@]2(CNc3cc(Cl)ccc32)[C@H]1c1cccc(Cl)c1F` (stereo partly drawn) [Example 21, (2′S,3S,4′S,5′R)-6-chloro-4′-(3-chloro-2-fluorophenyl)-2′-(2,2-dimethylpropyl)-N-{4-[(3-{2-[2-(2,6-dioxopiperidin-3-yl)-1-oxo-3H-isoindol-4-yl]ethynyl}bicyclo[1.1.1]pentan-1-yl)carbamoyl]-2-methoxyphenyl}-1,2-dihydrospiro[indole-3,3′-pyrrolidine]-5′-carboxamide], the IC50 at MDM2 was determined as 3.45 nM; in assay [1], 448 nM.

Regarding `COc1cc(N2CCC3(CC2)CC([C@@H]2C[C@H]2C#Cc2cccc4c2CN(C2CCC(=O)NC2=O)C4=O)C3)ccc1NC(=O)[C@@H]1N[C@@H](CC(C)(C)C)[C@@]2(CNc3cc(Cl)ccc32)[C@H]1c1cccc(Cl)c1F` (stereo partly drawn) [Example 22, (2′S,3S,4′S,5′R)-6-chloro-4′-(3-chloro-2-fluorophenyl)-N-(4-(2-((1S,2R)-2-((2-(2,6-dioxopiperidin-3-yl)-1-oxoisoindolin-4-yl)ethynyl)cyclopropyl)-7-azaspiro[3.5]nonan-7-yl)-2-methoxyphenyl)-2′-neopentylspiro[indoline-3,3′-pyrrolidine]-5′-carboxamide], the IC50 against MDM2 was 272 nM; in assay [1] it was above 1000 nM. In the same order, the values of `COc1cc(N2CCC3(CC2)CC([C@H]2C[C@@H]2C#Cc2cccc4c2CN(C2CCC(=O)NC2=O)C4=O)C3)ccc1NC(=O)[C@@H]1N[C@@H](CC(C)(C)C)[C@@]2(CNc3cc(Cl)ccc32)[C@H]1c1cccc(Cl)c1F` (stereo partly drawn) [Example 23, (2′S,3S,4′S,5′R)-6-chloro-4′-(3-chloro-2-fluorophenyl)-N-(4-(2-((1R,2S)-2-((2-(2,6-dioxopiperidin-3-yl)-1-oxoisoindolin-4-yl)ethynyl)cyclopropyl)-7-azaspiro[3.5]nonan-7-yl)-2-methoxyphenyl)-2′-neopentylspiro[indoline-3,3′-pyrrolidine]-5′-carboxamide] are 169 nM and above 1000 nM. `COc1cc(N2CCC[C@H](C#Cc3cccc4c3CN([C@H]3CCC(=O)NC3=O)C4=O)C2)ccc1NC(=O)[C@@H]1N[C@@H](CC(C)(C)C)[C@@]2(CNc3cc(Cl)ccc32)[C@H]1c1cccc(Cl)c1F` [Example 28, (2′S,3S,4′S,5′R)-6-chloro-4′-(3-chloro-2-fluorophenyl)-N-(4-((R)-3-((2-((S)-2,6-dioxopiperidin-3-yl)-1-oxoisoindolin-4-yl)ethynyl)piperidin-1-yl)-2-methoxyphenyl)-2′-neopentylspiro[indoline-3,3′-pyrrolidine]-5′-carboxamide] returned an IC50 against MDM2 of 10.8 nM. The same measure, in the same setting: as for `COc1cc(N2CCC[C@H](C#Cc3cccc4c3CN([C@@H]3CCC(=O)NC3=O)C4=O)C2)ccc1NC(=O)[C@@H]1N[C@@H](CC(C)(C)C)[C@@]2(CNc3cc(Cl)ccc32)[C@H]1c1cccc(Cl)c1F` [Example 29, (2′S,3S,4′S,5′R)-6-chloro-4′-(3-chloro-2-fluorophenyl)-N-(4-((R)-3-((2-((R)-2,6-dioxopiperidin-3-yl)-1-oxoisoindolin-4-yl)ethynyl)piperidin-1-yl)-2-methoxyphenyl)-2′-neopentylspiro[indoline-3,3′-pyrrolidine]-5′-carboxamide], the figure is 12 nM. The same measure, in the same setting: with `COc1cc(N2CCC[C@@H](C#Cc3cccc4c3CN([C@H]3CCC(=O)NC3=O)C4=O)C2)ccc1NC(=O)[C@@H]1N[C@@H](CC(C)(C)C)[C@@]2(CNc3cc(Cl)ccc32)[C@H]1c1cccc(Cl)c1F` [Example 30, (2′S,3S,4′S,5′R)-6-chloro-4′-(3-chloro-2-fluorophenyl)-N-(4-((S)-3-((2-((S)-2,6-dioxopiperidin-3-yl)-1-oxoisoindolin-4-yl)ethynyl)piperidin-1-yl)-2-methoxyphenyl)-2′-neopentylspiro[indoline-3,3′-pyrrolidine]-5′-carboxamide] the figure was 13.2 nM; with `COc1cc(N2CCC[C@@H](C#Cc3cccc4c3CN([C@@H]3CCC(=O)NC3=O)C4=O)C2)ccc1NC(=O)[C@@H]1N[C@@H](CC(C)(C)C)[C@@]2(CNc3cc(Cl)ccc32)[C@H]1c1cccc(Cl)c1F` [Example 31, (2′S,3S,4′S,5′R)-6-chloro-4′-(3-chloro-2-fluorophenyl)-N-(4-((S)-3-((2-((R)-2,6-dioxopiperidin-3-yl)-1-oxoisoindolin-4-yl)ethynyl)piperidin-1-yl)-2-methoxyphenyl)-2′-neopentylspiro[indoline-3,3′-pyrrolidine]-5′-carboxamide], 6.1 nM.
